Measurements reported in US9113629B2, “4-amino-6-(4-substituted-phenyl)-picolinates and 6-amino-2-(4-substituted-phenyl)-pyrimidine-4-carboxylates and their use as herbicides” (DOW AGROSCIENCES LLC, priority 2013, dated 2015).
Read-outs that look alike come from different tables or passages of the source.

What was measured:
[1] = system: Key Grass and Sedge Weeds as well as Grass Crops; assay: Post-emergent Test II herbicidal activity (Table 6); type: in vivo; conditions: post-emergence, 336 h; for pest or weed control at 70 g/ha: 70 g ai/ha; for pest or weed control at 140 g/ha: 140 g ai/ha
Outline: (§1)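 Scoring: visual, 0–100% injury at 14 d versus untreated. Treatment: overhead track spray, 187 L/ha, onto plants at the first–second true leaf stage. Growth: greenhouse, ~15 h light, 23–29 °C day, 22–28 °C night.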

[2] = system: Key Broadleaf Weed and Crop Species; assay: Post-emergent Test II herbicidal activity (Table 5); type: in vivo; conditions: post-emergence, 336 h, 14 days after application; for pest or weed control at 70 g/ha: application rate 70 g ai/ha; for pest or weed control at 140 g/ha: application rate 140 g ai/ha
Outline: as §1

[3] = CYPES: yellow nutsedge (Cyperus esculentus), read-out: Visual Growth Reduction (%) 14 Days After Application, CYPES
[4] = DIGSA: crabgrass (Digitaria sanguinalis), read-out: Visual Growth Reduction (%) 14 Days After Application, DIGSA
[5] = ECHCG: barnyardgrass (Echinochloa crus-galli), read-out: Visual Growth Reduction (%) 14 Days After Application, ECHCG
[6] = ORYSA: rice (Oryza sativa), crop, read-out: Visual Growth Reduction (%) 14 Days After Application, ORYSA
[7] = SETFA: giant foxtail (Setaria faberi), read-out: Visual Growth Reduction (%) 14 Days After Application, SETFA
[8] = SORVU: grain sorghum (Sorghum vulgare), read-out: Visual Growth Reduction (%) 14 Days After Application, SORVU
[9] = TRZSS (wheat, Triticum aestivum), crop, read-out: Visual Growth Reduction (%) 14 Days After Application, TRZSS
[10] = ZEAMX: maize, corn (Zea mays), crop, read-out: Visual Growth Reduction (%) 14 Days After Application, ZEAMX
[11] = ABUTH: velvetleaf (Abutilon theophrasti), read-out: Visual Growth Reduction (%) 14 Days After Application, ABUTH
[12] = AMARE: redroot pigweed (Amaranthus retroflexus), read-out: Visual Growth Reduction (%) 14 Days After Application, AMARE
[13] = BRSNN: oilseed-rape, canola (Brassica napus), read-out: Visual Growth Reduction (%) 14 Days After Application, BRSNN
[14] = CHEAL: lambsquarters (Chenopodium album), read-out: Visual Growth Reduction (%) 14 Days After Application, CHEAL
[15] = EPHHL: wild poinsettia (Euphorbia heterophylla), read-out: Visual Growth Reduction (%) 14 Days After Application, EPHHL
[16] = HELAN: sunflower (Helianthus annuus), read-out: Visual Growth Reduction (%) 14 Days After Application, HELAN
[17] = VIOTR: wild pansy (Viola tricolor), read-out: Visual Growth Reduction (%) 14 Days After Application, VIOTR

COC(=O)c1nc(-c2ccc(Br)c(F)c2F)c(F)c(N)c1Cl [Compound 109, methyl 4-amino-6-(4-bromo-2,3-difluorophenyl)-3-chloro-5-fluoropicolinate]
pest or weed control at 70 g/ha [1, 3]: 95 to 100% | pest or weed control at 140 g/ha [1, 3]: 95 to 100% | pest or weed control at 70 g/ha [1, 4]: 85 to 94% | pest or weed control at 140 g/ha [1, 4]: 95 to 100% | pest or weed control at 70 g/ha [1, 5]: 95 to 100% | pest or weed control at 140 g/ha [1, 5]: 95 to 100% | pest or weed control at 70 g/ha [1, 6]: 45 to 59% | pest or weed control at 140 g/ha [1, 6]: 45 to 59% | pest or weed control at 70 g/ha [1, 7]: 95 to 100% | pest or weed control at 140 g/ha [1, 7]: 95 to 100% | pest or weed control at 70 g/ha [1, 8]: 85 to 94% | pest or weed control at 140 g/ha [1, 8]: 95 to 100% | pest or weed control at 70 g/ha [1, 9]: 45 to 59% | pest or weed control at 140 g/ha [1, 9]: 60 to 74% | pest or weed control at 70 g/ha [1, 10]: 85 to 94% | pest or weed control at 140 g/ha [1, 10]: 85 to 94% | pest or weed control at 70 g/ha [2, 11]: 95 to 100% | pest or weed control at 140 g/ha [2, 11]: 95 to 100% | pest or weed control at 70 g/ha [2, 12]: 95 to 100% | pest or weed control at 140 g/ha [2, 12]: 95 to 100% | pest or weed control at 70 g/ha [2, 13]: 95 to 100% | pest or weed control at 140 g/ha [2, 13]: 95 to 100% | pest or weed control at 70 g/ha [2, 14]: 95 to 100% | pest or weed control at 140 g/ha [2, 14]: 95 to 100% | pest or weed control at 70 g/ha [2, 15]: 95 to 100% | pest or weed control at 140 g/ha [2, 15]: 95 to 100% | pest or weed control at 70 g/ha [2, 16]: 0 to 29% | pest or weed control at 140 g/ha [2, 16]: 95 to 100% | pest or weed control at 70 g/ha [2, 17]: 95 to 100% | pest or weed control at 140 g/ha [2, 17]: 95 to 100%
